In patent US12253513B2, “Methods and compositions for the selective lysis of blood cells and separation of microbial cells” (QVELLA CORPORATION, priority 2018, dated 2025):

Columns and labels:
[1] = test system: Pseudomonas aeruginosa (PA), Proteus mirabilis (PM), and Staphylococcus aureus (SA); test: Microbial cell intactness: ΔCT by real-time RT-PCR, spiked whole blood samples; format: cell-based; details: 0.94% w/v detergent in type 3 reagent/blood mixture; all three species
[2] = test system: Pseudomonas aeruginosa (PA), Proteus mirabilis (PM), and Staphylococcus aureus (SA); test: Microbial cell intactness: ΔCT by real-time RT-PCR, spiked phosphate buffer samples; format: cell-based; details: Triton X-100 0-0.75% w/v with SPS 15 mg/mL, no high pH; all cell types
Experimental: The effect of Triton X-100, one of the components of the type 2 blood lysis reagent, on microbial cell intactness, was experimentally investigated in the absence of a high pH environment (e.g. in the absence of a carbonate-bicarbonate buffer). Experiments were performed by contacting spiked phosphate buffer samples containing Pseudomonas aeruginosa (PA), Proteus mirabilis (PM), and Staphylococcus aureus (SA), prepared according to Example 3 below, with solutions containing Triton X-100 and SPS, such that the final concentrations of Triton X-100 in the various samples were 0, 0.188, 0.375, 0.55 and 0.75% w/v, and the SPS concentration was 15 mg/mL. Sample preparation and real time RT-PCR was performed according to the methods provided in Example 5 below. Spiked phosphate buffer samples, prepared according to the method of Example 3 below, were also prepared for spiked control and subjected to real time RT-PCR according to the method of Example 4 below. The ΔCT value, determined based on the difference between the spiked phosphate buffer sample CT value and the spiked control CT value, was employed as a proxy for microbial cell intactness after exposure to Triton X-100.
Bacterial cell suspension stock of 50 μL, having about 10^3 CFU of respective bacterial cells was added to 5 mL of 1 mM Phosphate Buffer (PB) and mixed by gentle vortexing. […]

| Molecule | ΔCT, Tween 20 compared with Triton X-100 as non-ionic detergent [1] | ΔCT [2] |
| --- | --- | --- |
| CCCCCCCCCCCC(=O)OCCOCCOCCOCCOCCOCCOCCOCCOCCOCCOCCOCCOCCOCCOCCOCCOCCOCCOCCOCCOCC(OCCOCCOCCOCCOCCOCCOCCOCCOCCOCCOCCOCCOCCOCCOCCOCCOCCOCCOCCOCCO)C1OCC(OCCOCCOCCOCCOCCOCCOCCOCCOCCOCCOCCOCCOCCOCCOCCOCCOCCOCCOCCOCCO)C1OCCOCCOCCOCCOCCOCCOCCOCCOCCOCCOCCOCCOCCOCCOCCOCCOCCOCCOCCOCCO (centres unmarked) [Tween 20, Polysorbate 20] | very similar |  |
| polyethylene glycol p-(1,1,3,3-tetramethylbutyl)-phenyl ether [Triton X-100] |  | ≤ 2 |
